Reference: patent publication US10953012B2, “Heterocyclic compounds for the inhibition of pask” (BioEnergenix LLC, priority 2011, dated 2021)

How the values were obtained:
hPASK (full length) = hPASK (full length) (Homo sapiens (Human), UniProt Q96RG2); assay: PAS Kinase Luminescence Assay (Kinase-Glo), full length; format: biochemical
Procedure: (§1) PAS Kinase Luminescence Assay
(§2) One assay for purified hPASK activity utilizes the Kinase-Glo Luminescent Kinase Assay (Promega), which quantifies the amount of ATP remaining in solution following kinase reaction. The assay is carried out in a 96-well plate format and is performed by adding a volume of Kinase-Glo Reagent (Promega, catalog #V3771) equal to the volume of solution in the well of a completed kinase reaction. Kinase-Glo reagent contains Luciferase and its substrate. After addition to a kinase reaction it allows to measure luminescence. The amount of ATP left in solution at the time of Kinase-Glo Plus addition is directly proportional to the luminescence that is measured in each well, and inversely correlated with kinase activity.
(§3) Purified hPASK from insect cells (0.02 μg) is added to a 50 μL reaction mix containing 40 mM HEPES (pH 7.0), 100 mM KCl, 5 mM MgCl2, 1 mM DTT and 1 μg of MBP protein. Inhibitory compounds are then added and the mixture is incubated for 10 min at 25° C. before adding 5 μL of ATP (at desired concentration). The reaction is allowed to proceed at 25° C. for 1 hour before adding 50 μL of Kinase-Glo reagent. The luminescence is measured as soon as 10 minutes after Kinase-Glo reagent is added.
(§4) Results are shown below in Table 1, where NT means not tested.

hPASK (kinase domain) = hPASK (kinase domain) (Homo sapiens (Human), UniProt Q96RG2); assay: PAS Kinase Luminescence Assay (Kinase-Glo), kinase domain; format: biochemical
Sequence of hPASK (kinase domain) (Q96RG2 999-1251): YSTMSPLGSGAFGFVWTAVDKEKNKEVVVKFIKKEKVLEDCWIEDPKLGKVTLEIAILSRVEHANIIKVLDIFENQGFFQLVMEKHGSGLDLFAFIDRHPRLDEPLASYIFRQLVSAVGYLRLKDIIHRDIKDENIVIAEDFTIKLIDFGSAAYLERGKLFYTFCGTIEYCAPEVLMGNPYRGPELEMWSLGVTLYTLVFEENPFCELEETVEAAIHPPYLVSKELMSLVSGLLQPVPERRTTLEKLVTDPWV
Procedure: as §1, §2, §3, §4

Sequence of hPASK (full length) (Q96RG2 whole entry): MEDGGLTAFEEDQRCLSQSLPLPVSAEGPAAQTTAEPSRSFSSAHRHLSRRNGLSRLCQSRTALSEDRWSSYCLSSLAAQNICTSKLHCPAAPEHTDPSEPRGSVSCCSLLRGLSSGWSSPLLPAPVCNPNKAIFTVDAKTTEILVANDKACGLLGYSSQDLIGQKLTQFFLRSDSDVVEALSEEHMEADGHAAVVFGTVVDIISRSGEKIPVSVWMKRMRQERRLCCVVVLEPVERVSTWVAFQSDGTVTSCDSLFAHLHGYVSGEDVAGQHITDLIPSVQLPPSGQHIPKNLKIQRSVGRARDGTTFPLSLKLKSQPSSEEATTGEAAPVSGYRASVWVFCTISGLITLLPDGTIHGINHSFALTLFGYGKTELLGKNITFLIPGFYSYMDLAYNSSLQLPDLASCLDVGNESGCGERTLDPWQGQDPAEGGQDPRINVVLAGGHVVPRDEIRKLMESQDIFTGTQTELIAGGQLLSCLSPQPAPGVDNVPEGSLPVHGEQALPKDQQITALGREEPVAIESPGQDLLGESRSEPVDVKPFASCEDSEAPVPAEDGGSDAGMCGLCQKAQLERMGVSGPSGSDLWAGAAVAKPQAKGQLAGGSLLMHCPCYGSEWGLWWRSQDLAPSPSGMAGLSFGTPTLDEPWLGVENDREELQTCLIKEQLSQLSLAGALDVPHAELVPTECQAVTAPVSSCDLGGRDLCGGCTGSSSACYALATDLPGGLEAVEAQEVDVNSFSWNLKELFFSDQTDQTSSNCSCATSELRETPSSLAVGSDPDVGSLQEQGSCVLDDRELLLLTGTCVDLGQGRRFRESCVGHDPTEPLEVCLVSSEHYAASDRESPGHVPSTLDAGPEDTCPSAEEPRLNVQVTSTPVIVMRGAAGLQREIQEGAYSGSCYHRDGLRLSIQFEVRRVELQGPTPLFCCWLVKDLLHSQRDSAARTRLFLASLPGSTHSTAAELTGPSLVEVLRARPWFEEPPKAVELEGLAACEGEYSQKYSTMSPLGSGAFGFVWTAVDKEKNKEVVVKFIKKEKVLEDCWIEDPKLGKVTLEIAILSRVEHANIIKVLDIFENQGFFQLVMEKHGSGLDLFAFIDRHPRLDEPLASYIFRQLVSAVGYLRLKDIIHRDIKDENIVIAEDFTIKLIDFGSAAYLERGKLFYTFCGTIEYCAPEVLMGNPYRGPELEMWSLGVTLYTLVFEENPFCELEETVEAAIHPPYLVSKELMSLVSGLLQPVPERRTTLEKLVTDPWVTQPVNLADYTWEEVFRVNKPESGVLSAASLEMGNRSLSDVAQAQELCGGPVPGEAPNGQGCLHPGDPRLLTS

SMILES	IC50 (hPASK (full length))	IC50 (hPASK (kinase domain))
COc1ccc(Cc2nn3c(=O)cc(-c4ccccc4)[nH]c3c2-c2ccccc2)cc1 [Example 12, 2-(4-Methoxy-benzyl)-3,5-diphenyl-4H-pyrazolo[1,5-a]pyrimidin-7-one]	≥ 10 µM	≥ 10 µM
Cc1nn2c(=O)c(C#N)c(-c3ccccc3)[nH]c2c1-c1ccccc1 [Example 13, 2-Methyl-7-oxo-3,5-diphenyl-4,7-dihydro-pyrazolo[1,5-a]pyrimidine-6-carbonitrile]	≥ 10 µM	≤ 10 µM
Cc1nn2c(=O)cc(-c3ccccc3)[nH]c2c1-c1ccc(F)cc1 [Example 15, 3-(4-Fluoro-phenyl)-2-methyl-5-phenyl-4H-pyrazolo[1,5-a]pyrimidin-7-one]	≥ 10 µM	≥ 10 µM
COc1ccccc1-c1cc(=O)n2nc(C)c(-c3ccccc3)c2[nH]1 [Example 16, 5-(2-Methoxy-phenyl)-2-methyl-3-phenyl-4H-pyrazolo[1,5-a]pyrimidin-7-one]	≤ 10 µM	≤ 10 µM
CCCc1cc(=O)n2nc(Cc3ccccc3)c(-c3ccc(Cl)cc3)c2[nH]1 [Example 18, 2-Benzyl-3-(4-chloro-phenyl)-5-propyl-4H-pyrazolo[1,5-a]pyrimidin-7-one]	≥ 10 µM	≥ 10 µM
COCc1cc(=O)n2nc(Cc3ccccc3)c(-c3ccc(OC)cc3)c2[nH]1 [Example 19, 2-Benzyl-5-methoxymethyl-3-(4-methoxy-phenyl)-4H-pyrazolo[1,5-a]pyrimidin-7-one]	≥ 10 µM	≥ 10 µM
O=c1cc(Cc2ccccc2)[nH]c2c(-c3ccccc3)c(Cc3ccccc3)nn12 [Example 21, 2,5-Dibenzyl-3-phenyl-4H-pyrazolo[1,5-a]pyrimidin-7-one]	≥ 10 µM	≥ 10 µM
CCCc1cc(=O)n2nc(C)c(-c3ccc(Cl)cc3)c2[nH]1 [Example 22, 3-(4-Chloro-phenyl)-2-methyl-5-propyl-4H-pyrazolo[1,5-a]pyrimidin-7-one]	≥ 10 µM	≥ 10 µM
COc1ccc(-c2c(C)nn3c(=O)cc(Cc4ccccc4)[nH]c23)cc1 [Example 23, 5-Benzyl-3-(4-methoxy-phenyl)-2-methyl-4H-pyrazolo[1,5-a]pyrimidin-7-one]	≥ 10 µM	≥ 10 µM
COCc1cc(=O)n2nc(Cc3ccccc3)c(-c3ccc(Cl)cc3)c2[nH]1 [Example 24, 2-Benzyl-3-(4-chloro-phenyl)-5-methoxymethyl-4H-pyrazolo[1,5-a]pyrimidin-7-one]	≥ 10 µM	≥ 10 µM
O=c1c2c([nH]c3c(-c4ccc(Cl)cc4)c(Cc4ccccc4)nn13)CCC2 [Example 26, 2-Benzyl-3-(4-chlorophenyl)-6,7-dihydro-4H-cyclopenta[d]pyrazolo[1,5-a]pyrimidin-8(5H)-one]	≥ 10 µM	≥ 10 µM
Cc1nn2c(=O)c3c([nH]c2c1-c1ccc(Cl)cc1)CCC3 [Example 27, 3-(4-Chlorophenyl)-2-methyl-6,7-dihydro-4H-cyclopenta[d]pyrazolo[1,5-a]pyrimidin-8(5H)-one]	≥ 10 µM	≥ 10 µM
Cc1cc(=O)n2nc(C)c(-c3ccc(Cl)cc3)c2[nH]1 [Example 28, 3-(4-Chloro-phenyl)-2,5-dimethyl-4H-pyrazolo[1,5-a]pyrimidin-7-one]	≥ 10 µM	≥ 10 µM
COCc1cc(=O)n2nc(-c3ccc(Cl)cc3)cc2[nH]1 [Example 29, 2-(4-Chloro-phenyl)-5-methoxymethyl-4H-pyrazolo[1,5-a]pyrimidin-7-one]	≥ 10 µM	≥ 10 µM
COc1ccc(-c2nn3c(=O)cc(C(C)C)[nH]c3c2-c2ccccc2)cc1 [Example 30, 5-Isopropyl-2-(4-methoxy-phenyl)-3-phenyl-4H-pyrazolo[1,5-a]pyrimidin-7-one]	≥ 10 µM	≥ 10 µM
COc1ccc(Cc2nn3c(=O)cc(C)[nH]c3c2-c2ccccc2)cc1 [Example 31, 2-(4-Methoxy-benzyl)-5-methyl-3-phenyl-4H-pyrazolo[1,5-a]pyrimidin-7-one]	≥ 10 µM	≥ 10 µM
CCc1c(C)[nH]c2c(-c3ccccc3)c(Cc3ccc(OC)cc3)nn2c1=O [Example 32, 6-Ethyl-2-(4-methoxy-benzyl)-5-methyl-3-phenyl-4H-pyrazolo[1,5-a]pyrimidin-7-one]	≥ 10 µM	≥ 10 µM
CCc1c(C)[nH]c2c(-c3ccc(Cl)cc3)c(C)nn2c1=O [Example 33, 3-(4-Chloro-phenyl)-6-ethyl-2,5-dimethyl-4H-pyrazolo[1,5-a]pyrimidin-7-one]	≥ 10 µM	≥ 10 µM
O=c1cc(Cc2ccccc2)[nH]c2c(-c3ccccc3)c(-c3ccccc3)nn12 [Example 34, 5-Benzyl-2,3-diphenyl-4H-pyrazolo[1,5-a]pyrimidin-7-one]	≥ 10 µM	≥ 10 µM
O=c1c2c([nH]c3c(-c4ccccc4)c(-c4ccccc4)nn13)CCC2 [Example 35, 2,3-Diphenyl-6,7-dihydro-4H-cyclopenta[d]pyrazolo[1,5-a]pyrimidin-8(5H)-one]	≥ 10 µM	≤ 10 µM
CCOC(=O)Cc1cc(=O)n2nc(-c3ccccc3)c(-c3ccccc3)c2[nH]1 [Example 36, (7-oxo-2,3-diphenyl-4,7-dihydro-pyrazolo[1,5-a]pyrimidin-5-yl)-acetic acid ethyl ester]	≥ 10 µM	≥ 10 µM
Cc1ccc(-c2cc(=O)n3nc(C)c(-c4ccccc4)c3[nH]2)cc1 [Example 37, 2-Methyl-3-phenyl-5-p-tolyl-4H-pyrazolo[1,5-a]pyrimidin-7-one]	≥ 10 µM	≥ 10 µM

Second part, the molecule after the results:

IC50 (hPASK (full length))	IC50 (hPASK (kinase domain))	SMILES
≥ 10 µM	≤ 10 µM	COc1ccc(-c2c(Cc3ccccc3)nn3c(=O)cc(-c4ccccc4)[nH]c23)cc1 [Example 5, 2-Benzyl-3-(4-methoxy-phenyl)-5-phenyl-4H-pyrazolo[1,5-a]pyrimidin-7-one]
≥ 10 µM	≤ 10 µM	COc1ccc(-c2c(C)nn3c(=O)cc(-c4ccccc4)[nH]c23)cc1 [Example 6, 3-(4-Methoxy-phenyl)-2-methyl-5-phenyl-4H-pyrazolo[1,5-a]pyrimidin-7-one]
≥ 10 µM	≤ 10 µM	O=c1cc(-c2ccccc2)[nH]c2c(-c3ccccc3)c(Cc3ccccc3)nn12 [Example 7, 2-Benzyl-3,5-diphenyl-4H-pyrazolo[1,5-a]pyrimidin-7-one]
≤ 10 µM	≤ 10 µM	Cc1nn2c(=O)cc(-c3ccccc3)[nH]c2c1-c1ccc(Cl)cc1 [Example 8, 3-(4-Chloro-phenyl)-2-methyl-5-phenyl-4H-pyrazolo[1,5-a]pyrimidin-7-one]
≤ 10 µM	≤ 10 µM	O=c1cc(-c2ccc([N+](=O)[O-])cc2)[nH]c2c(-c3ccc(Cl)cc3)c(Cc3ccccc3)nn12 [Example 9, 2-Benzyl-3-(4-chloro-phenyl)-5-(4-nitro-phenyl)-4H-pyrazolo[1,5-a]pyrimidin-7-one]
≥ 10 µM	≥ 10 µM	O=c1cc(-c2ccccc2)[nH]c2c(-c3ccc(Cl)cc3)c(Cc3ccccc3)nn12 [Example 10, 2-Benzyl-3-(4-chloro-phenyl)-5-phenyl-4H-pyrazolo[1,5-a]pyrimidin-7-one]
≥ 10 µM	≥ 10 µM	O=c1cc(-c2ccccc2)[nH]c2c(-c3cccc4ccccc34)c(Cc3ccccc3)nn12 [Example 11, 2-Benzyl-3-naphthalen-1-yl-5-phenyl-4H-pyrazolo[1,5-a]pyrimidin-7-one]
≤ 10 µM	≤ 10 µM	COc1ccc(-c2cc(=O)n3nc(C)c(-c4ccccc4)c3[nH]2)cc1 [Example 14, 5-(4-Methoxy-phenyl)-2-methyl-3-phenyl-4H-pyrazolo[1,5-a]pyrimidin-7-one]
≤ 10 µM	≤ 10 µM	Cc1nn2c(=O)cc(-c3ccc(Cl)cc3)[nH]c2c1-c1ccccc1 [Example 17, 5-(4-Chloro-phenyl)-2-methyl-3-phenyl-4H-pyrazolo[1,5-a]pyrimidin-7-one]
≤ 10 µM	≤ 10 µM	COc1ccc(-c2cc(=O)n3nc(C)c(-c4ccc(F)cc4)c3[nH]2)cc1 [Example 38, 3-(4-Fluoro-phenyl)-5-(4-methoxy-phenyl)-2-methyl-4H-pyrazolo[1,5-a]pyrimidin-7-one]
≤ 10 µM	≥ 10 µM	Cc1cc(=O)n2nc(-c3cccc(Br)c3)cc2[nH]1 [Example 39, 2-(3-Bromo-phenyl)-5-methyl-4H-pyrazolo[1,5-a]pyrimidin-7-one]
